{
  "source": "patent US20220370485A1",
  "about": "“COMPOUNDS AND METHODS FOR TREATING OR PREVENTING CARDIOVASCULAR DISEASES AND CONDITIONS” (Lexicon Pharmaceuticals, Inc., priority 2021, published 2022)",
  "key": {"[1]": {"tested_on": "patients with type 2 diabetes mellitus, chronic kidney disease, and additional cardiovascular risk", "conditions": "T2DM + CKD patients"}, "[2]": {"tested_on": "patients with type 2 diabetes mellitus recently hospitalized for worsening heart failure", "conditions": "for Difference (95% CI) in least-squares mean change in KCCQ-12 score to month 4 / Difference (95% CI) in least-squares mean change in estimated GFR: sotagliflozin minus placebo"}, "[3]": {"conditions": "sotagliflozin vs placebo, listed as sotagliflozin"}, "[4]": {"conditions": "sotagliflozin vs placebo, time-to-event analysis"}, "[5]": {"conditions": "T2DM + worsening heart failure, N = 608"}, "[6]": {"conditions": "T2DM + worsening heart failure, N = 608, listed as sotagliflozin"}, "[7]": {"conditions": "sotagliflozin vs. placebo, T2DM + worsening heart failure"}, "[8]": {"conditions": "sotagliflozin vs. placebo, T2DM + worsening heart failure, listed as sotagliflozin"}},
  "note": "Like-named read-outs stand apart in the source and are kept apart here.",
  "data": [
    {"smiles": "CCOc1ccc(Cc2cc([C@@H]3O[C@H](SC)[C@@H](O)[C@H](O)[C@H]3O)ccc2Cl)cc1", "note": "[Sotagliflozin, (2S,3R,4R,5S,6R)-2-(4-chloro-3-(4-ethoxybenzyl)phenyl)-6-(methylthio)tetrahydro-2H-pyran-3,4,5-triol]", "values": [
      {"measurement": "Primary end point: total no. of deaths from cardiovascular causes, hospitalizations for HF, and urgent visits for HF - event rate", "setting": "[1]; 200 mg once daily increased to 400 mg, N = 5292, median follow-up 16 months", "value": "5.6 no. of events/100 patient-yr"},
      {"measurement": "Deaths from any cause - event rate", "setting": "[1]; N = 5292", "value": "3.5 no. of events/100 patient-yr"},
      {"measurement": "Deaths from any cause - no. of events", "setting": "[1]; N = 5292", "value": 246},
      {"measurement": "Deaths from cardiovascular causes - event rate", "setting": "[1]; N = 5292", "value": "2.2 no. of events/100 patient-yr"},
      {"measurement": "Deaths from cardiovascular causes - no. of events", "setting": "[1]; N = 5292", "value": 155},
      {"measurement": "First occurrence of a sustained decrease of ≥50% in the eGFR from baseline for ≥30 days, long-term dialysis, renal transplantation, or sustained eGFR of <15 ml/min/1.73 m2 for ≥30 days - event rate", "setting": "[1]; N = 5292", "value": "0.5 no. of events/100 patient-yr"},
      {"measurement": "First occurrence of a sustained decrease of ≥50% in the eGFR from baseline for ≥30 days, long-term dialysis, renal transplantation, or sustained eGFR of <15 ml/min/1.73 m2 for ≥30 days - no. of events", "setting": "[1]; N = 5292", "value": 37},
      {"measurement": "Primary end point: total no. of deaths from cardiovascular causes, hospitalizations for HF, and urgent visits for HF - no. of events", "setting": "[1]; N = 5292", "value": 400},
      {"measurement": "Total no. of deaths from cardiovascular causes, hospitalizations for HF, nonfatal myocardial infarctions, and nonfatal strokes - event rate", "setting": "[1]; N = 5292", "value": "7.6 no. of events/100 patient-yr"},
      {"measurement": "Total no. of deaths from cardiovascular causes, hospitalizations for HF, nonfatal myocardial infarctions, and nonfatal strokes - no. of events", "setting": "[1]; N = 5292", "value": 541},
      {"measurement": "Total no. of deaths from cardiovascular causes, hospitalizations for HF, urgent visits for HF, and events of HF during hospitalization - event rate", "setting": "[1]; N = 5292", "value": "6.4 no. of events/100 patient-yr"},
      {"measurement": "Total no. of deaths from cardiovascular causes, hospitalizations for HF, urgent visits for HF, and events of HF during hospitalization - no. of events", "setting": "[1]; N = 5292", "value": 453},
      {"measurement": "Total no. of deaths from cardiovascular causes, nonfatal myocardial infarctions, and nonfatal strokes - event rate", "setting": "[1]; N = 5292", "value": "4.8 no. of events/100 patient-yr"},
      {"measurement": "Total no. of deaths from cardiovascular causes, nonfatal myocardial infarctions, and nonfatal strokes - no. of events", "setting": "[1]; N = 5292", "value": 343},
      {"measurement": "Total no. of hospitalizations for HF and urgent visits for HF - event rate", "setting": "[1]; N = 5292", "value": "3.5 no. of events/100 patient-yr"},
      {"measurement": "Total no. of hospitalizations for HF and urgent visits for HF - no. of events", "setting": "[1]; N = 5292", "value": 245},
      {"measurement": "Deaths from any cause - Hazard Ratio (95% CI)", "setting": "[1]; sotagliflozin vs placebo", "value": "0.99 (0.83-1.18)"},
      {"measurement": "Deaths from cardiovascular causes - Hazard Ratio (95% CI)", "setting": "[1]; sotagliflozin vs placebo", "value": "0.90 (0.73-1.12)"},
      {"measurement": "Primary end point: total no. of deaths from cardiovascular causes, hospitalizations for HF, and urgent visits for HF - Hazard Ratio (95% CI)", "setting": "[1]; sotagliflozin vs placebo", "value": "0.74 (0.63-0.88)"},
      {"measurement": "Total no. of deaths from cardiovascular causes, hospitalizations for HF, nonfatal myocardial infarctions, and nonfatal strokes - Hazard Ratio (95% CI)", "setting": "[1]; sotagliflozin vs placebo", "value": "0.72 (0.63-0.83)"},
      {"measurement": "Total no. of deaths from cardiovascular causes, hospitalizations for HF, urgent visits for HF, and events of HF during hospitalization - Hazard Ratio (95% CI)", "setting": "[1]; sotagliflozin vs placebo", "value": "0.76 (0.64-0.89)"},
      {"measurement": "Total no. of deaths from cardiovascular causes, nonfatal myocardial infarctions, and nonfatal strokes - Hazard Ratio (95% CI)", "setting": "[1]; sotagliflozin vs placebo", "value": "0.77 (0.65-0.91)"},
      {"measurement": "Total no. of hospitalizations for HF and urgent visits for HF - Hazard Ratio (95% CI)", "setting": "[1]; sotagliflozin vs placebo", "value": "0.67 (0.55-0.82)"},
      {"measurement": "Deaths from cardiovascular causes - Hazard Ratio (95% CI)", "setting": "[1]; [3]", "value": 0.90},
      {"measurement": "Primary end point: total no. of deaths from cardiovascular causes, hospitalizations for HF, and urgent visits for HF - Hazard Ratio (95% CI)", "setting": "[1]; [3]", "value": 0.74},
      {"measurement": "Total no. of hospitalizations for HF and urgent visits for HF - Hazard Ratio (95% CI)", "setting": "[1]; [3]", "value": 0.67},
      {"measurement": "Original coprimary end point: first occurrence of death from cardiovascular causes or hospitalization for heart failure - hazard ratio", "setting": "[1]; [4]", "value": 0.77},
      {"measurement": "Original coprimary end point: first occurrence of death from cardiovascular causes, nonfatal myocardial infarction, or nonfatal stroke - hazard ratio", "setting": "[1]; [4]", "value": 0.84},
      {"measurement": "Deaths from any cause - rate", "setting": "[2]; [5]", "value": "(13.5) events per 100 person-years of follow-up"},
      {"measurement": "Deaths from any cause - total no. of events", "setting": "[2]; [5]", "value": 65},
      {"measurement": "Deaths from cardiovascular causes - rate", "setting": "[2]; [5]", "value": "(10.6) events per 100 person-years of follow-up"},
      {"measurement": "Deaths from cardiovascular causes - total no. of events", "setting": "[2]; [5]", "value": 51},
      {"measurement": "Deaths from cardiovascular causes, hospitalizations and urgent visits for heart failure, and events of heart failure during hospitalization - rate", "setting": "[2]; [5]", "value": "(54.7) events per 100 person-years of follow-up"},
      {"measurement": "Deaths from cardiovascular causes, hospitalizations and urgent visits for heart failure, and events of heart failure during hospitalization - total no. of events", "setting": "[2]; [5]", "value": 263},
      {"measurement": "Deaths from cardiovascular causes, hospitalizations for heart failure, nonfatal myocardial infarctions, and nonfatal strokes - rate", "setting": "[2]; [5]", "value": "(51.4) events per 100 person-years of follow-up"},
      {"measurement": "Deaths from cardiovascular causes, hospitalizations for heart failure, nonfatal myocardial infarctions, and nonfatal strokes - total no. of events", "setting": "[2]; [5]", "value": 247},
      {"measurement": "Hospitalizations and urgent visits for heart failure - rate", "setting": "[2]; [5]", "value": "(40.4) events per 100 person-years of follow-up"},
      {"measurement": "Hospitalizations and urgent visits for heart failure - total no. of events", "setting": "[2]; [5]", "value": 194},
      {"measurement": "Least-squares mean change in estimated GFR", "setting": "[2]; T2DM + worsening heart failure, N = 608, during follow-up", "value": "−0.34", "unit": "ml/min/1.73 m^2"},
      {"measurement": "Deaths from any cause - rate", "setting": "[2]; [6]", "value": "13.5 events per 100 person-years of"},
      {"measurement": "Deaths from cardiovascular causes - rate", "setting": "[2]; [6]", "value": "10.6 events per 100 person-years of"},
      {"measurement": "Least-squares mean change in KCCQ-12 score to month 4", "setting": "[2]; T2DM + worsening heart failure, N = 608, scores range from 0 to 100", "value": 17.7},
      {"measurement": "Primary end point: deaths from cardiovascular causes and hospitalizations and urgent visits for heart failure - total no. of events", "setting": "[2]; T2DM patients with recent worsening heart failure, 200 mg once daily increased to 400 mg, N = 608, median follow-up 9.0 months", "value": 245},
      {"measurement": "Primary end point: deaths from cardiovascular causes and hospitalizations and urgent visits for heart failure - rate", "setting": "[2]; T2DM patients with recent worsening heart failure, N = 608", "value": "(51.0) events per 100 person-years of follow-up"},
      {"measurement": "Primary end point: deaths from cardiovascular causes and hospitalizations and urgent visits for heart failure - rate", "setting": "[2]; T2DM patients with recent worsening heart failure, N = 608, listed as sotagliflozin", "value": "51.0 events per 100 person-years of"},
      {"measurement": "Absolute difference in rate of primary end-point events", "setting": "[2]; sotagliflozin group vs placebo group (51.0 vs 76.3), 95% CI, 5.1 to 45.6", "value": "25.3 events per 100 patient-years"},
      {"measurement": "Difference (95% CI) in least-squares mean change in KCCQ-12 score to month 4", "setting": "[2]", "value": "4.1 (1.3 to 7.0) points"},
      {"measurement": "Difference (95% CI) in least-squares mean change in estimated GFR", "setting": "[2]", "value": "−0.16 (−1.30 to 0.98) ml/min/1.73 m^2"},
      {"measurement": "Difference (95% CI) in least-squares mean change in KCCQ-12 score to month 4", "setting": "[2]; listed as sotagliflozin", "value": 4.1, "unit": "points"},
      {"measurement": "Difference (95% CI) in least-squares mean change in estimated GFR", "setting": "[2]; listed as sotagliflozin", "value": "−0.16", "unit": "ml/min/1.73 m^2"},
      {"measurement": "Total number of deaths from cardiovascular causes and hospitalizations for heart failure, excluding urgent visits for heart failure - hazard ratio", "setting": "[2]; sotagliflozin vs. placebo, 95% CI, 0.53 to 0.88", "value": 0.68},
      {"measurement": "Deaths from any cause - Hazard Ratio (95% CI)", "setting": "[2]; [7]", "value": "0.82 (0.59 to 1.14)"},
      {"measurement": "Deaths from cardiovascular causes - Hazard Ratio (95% CI)", "setting": "[2]; [7]", "value": "0.84 (0.58 to 1.22)"},
      {"measurement": "Deaths from cardiovascular causes, hospitalizations and urgent visits for heart failure, and events of heart failure during hospitalization - Hazard Ratio (95% CI)", "setting": "[2]; [7]", "value": "0.68 (0.54 to 0.86)"},
      {"measurement": "Deaths from cardiovascular causes, hospitalizations for heart failure, nonfatal myocardial infarctions, and nonfatal strokes - Hazard Ratio (95% CI)", "setting": "[2]; [7]", "value": "0.72 (0.56 to 0.92)"},
      {"measurement": "Hospitalizations and urgent visits for heart failure - Hazard Ratio (95% CI)", "setting": "[2]; [7]", "value": "0.64 (0.49 to 0.83)"},
      {"measurement": "Primary end point: deaths from cardiovascular causes and hospitalizations and urgent visits for heart failure - Hazard Ratio (95% CI)", "setting": "[2]; [7]", "value": "0.67 (0.52 to 0.85)"},
      {"measurement": "Deaths from any cause - Hazard Ratio (95% CI)", "setting": "[2]; [8]", "value": 0.82},
      {"measurement": "Deaths from cardiovascular causes - Hazard Ratio (95% CI)", "setting": "[2]; [8]", "value": 0.84},
      {"measurement": "Primary end point: deaths from cardiovascular causes and hospitalizations and urgent visits for heart failure - Hazard Ratio (95% CI)", "setting": "[2]; [8]", "value": 0.67},
      {"measurement": "Original primary end point: first occurrence of either death from cardiovascular causes or hospitalization for heart failure - hazard ratio", "setting": "[2]; sotagliflozin vs. placebo, time-to-event analysis, 95% CI, 0.56 to 0.89", "value": 0.71},
      {"measurement": "Subgroup analyses of the primary efficacy end point", "setting": "[2]; subgroups by geographic region, LVEF (<50% or ≥50%), timing of first dose, sex, age, renal function (FIG. 4)", "value": "consistent treatment effect"}
    ]}
  ]
}
